Values joined by “and” are separate entries in the source; they are usually repeats but may differ in a detail not shown here. Identical values can stand only once. d = 2'-deoxy (DNA)

Series [1] has as its system HOS human osteosarcoma cells. Put plainly: Cell counts of drug combination administration (Trypan Blue), cell viability. On the procedure: (§1) (1) Cells were plated in a 10 cm culture plate to grow a density of about 90%. The medium was removed, and the adherent cells were washed once with a PBS buffer. 1 mL of trypsin was added, and immediately discarded after mixing well. The cells were placed in the incubator and digested for about 5 min, and then about 10 ml of fresh medium was added. 10 μL was taken for counting.
(§2) (2) 10 μL of the well-mixed cells were taken and mixed into 10 μL of Trypan Blue solution, and counted.
(§3) (3) After counting, the cells were diluted to 1×10^5 cells/ml. The diluted cells were mixed well, and plated into a 24-well plate with 500 μL per well, i.e., about 50,000 cells per well.
(§4) (4) The cells plated in the 24-well plate were cultured for about 24h, and then drugs were added. […]
(§5) (5) After 24h of dosing, the medium was discarded. About 150 μL of trypsin was added and then discarded. The cells were digested for 5 min;
(§6) (6) After digestion, equivalent amounts of PBS were added into each well and mixed uniformly. Then, 10 μL/well of Trypan Blue solution was added and mixed uniformly. 10 μL of the well-mixed solution was taken and counted. In accordance with “Cell viability=Cell Count of Test Group/Cell Count of Control Group×100%”, the cell viability of various groups was calculated.
(§7) The coefficient of drug in interaction (CDI) was used to evaluate the nature of the interaction between the two drugs. The test groups were divided into the control group, the group of A drug, the group of B drug and the group of AB in combination, and used for detecting the cell viability in A, B and AB groups, respectively.

Series [2] deals with 143B human osteosarcoma cells. The series is described as above. On the procedure: as §1, §2, §3, §4, §5, §6, §7
In a further series the test system is HEK293 cells. Put plainly: Cell viability compared with HEK293 cells (specificity). Format: cell-based. The conditions noted are these: in combination with ascorbic acid. On the procedure: HEK293 cells, HOS human osteosarcoma cells, and 143B human osteosarcoma cells were subcultured in an incubator at 37° C., 5% CO2 using a RPMI-1640 medium containing 10% fetal bovine serum (FBS).
(§8) 10 μL was taken for counting.
(5) After 24h of dosing, the medium was discarded. […] The cells were digested for 5 min;

Series [3] relates to MC38 human colon cancer cells. Briefly: Cell viability, method of Example 1. On the procedure:
as §1, §2, §3
(§9) (4) The cells plated in the 24-well plate were cultured for about 24h, and then drugs were added. Various test groups comprise 5 groups as follows: the single-drug group of PKF118-310 (with a concentration of 0.1 μM), the group of ascorbic acid (with a concentration of 0.5 mM), the group of PKF118-310 (with a concentration of 0.1 μM) in combination with ascorbic acid (with a concentration of 0.5 mM); the control group that is a cell group to which only solvent DMSO is added; and the blank group that is a group to which no cell is added and only solvent (DMSO) is added.
as §5, §6
(§10) The inhibitory effect of PKF118-310 on the MC38 human colon cancer cells and the HCT116 human […] cancer cells was detected in accordance with the corresponding method of Example 1.

Series [4] deals with HCT116 human colon cancer cells. Put plainly: Cell viability of single-drug administration, concentration gradient (CCK-8). Format: cell-based. The conditions noted are these: concentrations ranging from 0 to 100 μM. On the procedure: as §8
(§11) The diluted cells were plated into a 96-well plate with 100 μL per well, i.e., about 10,000 cells per well. […]
(§12) (4) After 24h of dosing, 10 μL of CCK-8 solution was added. The cells were incubated in the incubator for 1-2 hours, and then measured at 490 nm using a microplate reader for the absorbance (OD value) of each well. The results were recorded. The relative cell viability was calculated as follows:
(§13) The cell viability of the control group obtained according the equation is 100%.

Series [5] deals with MC38 human colon cancer cells. The series is described as above. The conditions noted are these: concentrations ranging from 0 to 100 μM. Type of series: cell-based. On the procedure: as §8, §11, §12, §13
Series [6] concerns SKOV3 human ovarian cancer cells. Briefly: cells. The conditions noted are these: Homo sapiens, SK-OV-3, read-out: cell viability. On the procedure: as §1, §2, §3, §9, §5, §6
(§14) The inhibitory effect of PKF118-310 on the SKOV3 human ovarian cancer cells and the 3AO human ovarian cancer cells was detected in accordance with the corresponding method of Example 1.

Series [7] deals with 3AO human ovarian cancer cells. Put plainly: cells. The following applies: Homo sapiens, 3AO, read-out: cell viability. On the procedure: as §1, §2, §3, §9, §5, §6, §14
For the next series, the system named is DB lymphoma cells. The following applies: 2 mM ascorbic acid alone. On the procedure: as §1, §2, §3, §9, §5, §6
For example, as for the DB lymphoma cells, the control group involves adding the solvent DMSO alone, the Vc group involves adding 2 mM of ascorbic acid, the low-dose PKF group involves adding 2 μM of PKF118-310, the low-dose PKF+Vc group involves adding 2 μM of PKF118-310 and 2 mM of ascorbic acid, the high-dose PKF group involves adding 5 μM of PKF118-310, and the high-dose PKF+the Vc group involves adding 5 μM of PKF118-310 and 2 mM of ascorbic acid.

The test system of series [8] is 143B human osteosarcoma cells. Put plainly: siRNA against β-catenin transfection with or without sodium ascorbate, cell viability by cell count. Type of series: cell-based. The conditions noted are these: 143B cells.
Description: SiRNA is designed against the nucleotide sequence of β-catenin, and the siRNA codes are 484, 1202, and 1387, respectively. The sequences of sense strand and anti-sense strand of 484 are shown in SEQ ID NO. 1-2, respectively, and the sequences of sense strand and anti-sense strand of 1202 are shown in SEQ ID NO. 3-4, respectively, and the sequences of sense strand and anti-sense strand of 1387 are shown in SEQ ID NO. 5-6, respectively, wherein there are 2 T-bases at the 3′ end of each strand. 143B human osteosarcoma cells were subcultured at 37° C., 5% CO2 in an incubator with a RPMI-1640 medium containing 10% fetal bovine serum. The particular steps were as follows:
as §8
Then, the medium was discarded and replaced with 500 μL of serum-free medium.
(5) […] of siRNA was added into 50 μL of serum-free medium and mixed well.
(6) 1 μL of Lipofectamin 2000 transfection reagent was added into 50 μL of serum-free medium, mixed well, and stood at room temperature for 5 min.
(7) The siRNA diluted in Step (5) and the Lipofectamin 2000 reagent obtained in Step (6) were mixed, shaken well, and stood at room temperature for 20 min.
(8) 100 μL of the mixture obtained in Step (7) was added into the wells of the cell culture plate, cultured at 37° C. for 4h, and then the medium was replaced with normal medium. And an ascorbic acid solution with a concentration of 0.5 mM into the ascorbic acid group and the combination group.
(9) After 24h of dosing, the medium was discarded. […] The cells were digested for 5 min;

For series [9] the following is noted: alone; PKF118-310 0.7 mg/kg s.c. or ascorbate 1 g/kg i.v. every 3 days.
Description: The day of the first injection was taken as Day 1, and then the body weight and the tumor size of the nude mice were examined and recorded: the tumor volume (mm^3)=Length (L)×Width (W)^2/2. The tumor was subject to Luciferin fluorescence imaging. That is, a 1 mg/mL of aqueous potassium D-fluorescein solution was prepared, and each mouse was intraperitoneally injected with 100 μL. After 10 min of injection, the mice were subject to Luciferin fluorescence imaging with a small animal live imaging instrument.
The test system of series [10] is HCT116 human colon cancer cells. Briefly: cells. The following applies: Homo sapiens, HCT-116, read-out: cell viability. On the procedure:
as §1, §2, §3, §9, §5, §6, §10

The mark [11] stands for this setting: 10 μM in combination with 0.5 mM ascorbic acid.
[12] abbreviates: 20 μM in combination with 0.5 mM sodium ascorbate.
The mark [13] stands for this setting: Homo sapiens, MC-38, read-out: cell viability.
[14] abbreviates: Homo sapiens, 143B, read-out: cell viability.
[15] abbreviates: administration of the siRNA alone.
Where [16] appears, read: siRNA in combination with 0.5 mM sodium ascorbate.

A word on the cell viability: it is a read-out of living cells in per cent, often relative to untreated cells. As to `Cc1nc2c(=O)n(C)c(=O)nc-2n(C)n1` [3-Methyltoxoflavin], the cell viability is recorded as 54% in series [1] (10 μM and 0.5 mM ascorbic acid); 63% in [1] (single drug 10 μM). Moreover, the CDI value in series [1] (setting [11]) turned out to be 0.86.

Turning to `OC1CCC(Oc2cccc3cnc(Nc4ccc5nc[nH]c5c4)nc23)CC1` (centres unmarked) [NCB-0846], the CDI value in series [2] (143B cells, 20 μM in combination with 0.5 mM sodium ascorbate) came to 0.13; in series [1] (setting [12]) it was 0.16. In addition, the “specificity of inhibition of tumor cell viability as compared with the HEK293 cells” value in the series on HEK293 cells is “can specifically inhibit the cell viability of the 143B cells and the HOS cells”.

Regarding `C[C@H]1[C@H]2N(C(=O)CN(C)N2C(=O)NCc2ccccc2)[C@@H](Cc2ccc(OP(=O)(O)O)cc2)C(=O)N1Cc1cccc2cccnc12` [PRI-724], in [1] (setting [12]), the CDI value is given as 0.41 and the cell viability stood at 74%. For the same molecule, the cell viability in series [1] (single-drug 20 μM) is listed as 102%.

Turning to `Cn1nc(-c2ccc(C(F)(F)F)cc2)nc2c(=O)n(C)c(=O)nc1-2` [Walrycin B], the cell viability in [1] (10 μM and 0.5 mM ascorbic acid) is reported as 30%; in series [1] (single drug 10 μM), 42%. For the same molecule, the CDI value in series [1] (setting [11]) worked out at 0.73.

For orientation: viability means a per cent measure of how many cells are alive, often set against a control. With `CCC(C)c1nc2c(=O)n(C)c(=O)nc-2n(C(C)C)n1` (centres unmarked) [compound C-1], the results for the viability at 5 µM in series [3] (setting [13]) and in [2] (setting [14]) were 90% and 50%, respectively. Besides, the CDI value in [3] (MC38 cells, 5 μM in combination with 0.5 mM ascorbic acid) is given as 0.68; in series [2] (143B cells, 5 μM in combination with 0.5 mM ascorbic acid), 0.40. Moreover, the cell viability in series [3] (human, 24 h, 5 μM) stood at 59%; in [2] (human, 24 h, 5 μM), 19%.

Consider `CC(C)c1nc2c(=O)n(C)c(=O)nc-2n(C)n1` [compound C-2], for which the viability at 1 µM in series [3] (setting [13]) and in [2] (setting [14]) was 83% in each case. The CDI value is listed as 0.07 in series [3] (MC38 cells, 1 μM in combination with 0.5 mM ascorbic acid) and 0.37 in [2] (143B cells, 1 μM in combination with 0.5 mM ascorbic acid). For the same molecule, the cell viability in [3] (human, 24 h, 1 μM) is 6%; in [2] (human, 24 h, 1 μM), 28%.

Consider `O=C1[O][Pt]2([NH][C@@H]3CCCC[C@H]3[NH]2)[O]C1=O` [oxaliplatin], for which the “effect on the cell viability” value in series [4] and in series [5] was “does not have significant effect on the cell viability” each time.

On to `O=C1O[C@H]([C@@H](O)CO)C([O-])=C1O.[Na+]` [sodium ascorbate], for which the viability at 500 µM was found to be 97% in [6]; 99% in [7]; 83% in [3] (Homo sapiens, MC-38, read-out: cell viability, MC38 cells, 0.5 mM sodium ascorbate (ascorbic acid) alone); 63% in series [8] (Homo sapiens, 0.5 mM sodium ascorbate alone (siRNA experiment)); 98% in series [10]. The cell viability is 96% and 98% in series [3] (MC38 cells, 0.5 mM sodium ascorbate (ascorbic acid) alone); 91% in the series on DB lymphoma cells; 54% and 80% in [2] (143B cells, 0.5 mM sodium ascorbate (ascorbic acid) alone); 96% and 92% in series [2] (143B cells, 0.5 mM sodium ascorbate (ascorbic acid) alone, listed as ascorbic acid); 91% and 96% and 76% in series [1] (0.5 mM sodium ascorbate (ascorbic acid) alone); 98% and 99% in [1] (0.5 mM sodium ascorbate (ascorbic acid) alone, listed as ascorbic acid). In addition, the “effect on the body weight of mice” value in [9] is “no effect on the body weight of mice”.

Regarding “siRNA 484: siRNA against β-catenin, sense and anti-sense strands SEQ ID NO. 1-2, 2 T-bases at the 3′ end of each strand (sense CCUUCACUCAAGAACAAGU; antisense ACUUGUUCUUGAGUGAAGG; RNA, 3' dTdT, backbone not given here)”, in [8] (setting [15]), the cell viability came to 90%. Further, in series [8] (setting [16]), the CDI value amounted to 0.46 and the cell viability is recorded as 26%.

Consider “siRNA 1202: siRNA against β-catenin, sense and anti-sense strands SEQ ID NO. 3-4, 2 T-bases at the 3′ end of each strand (sense GCUCAUCAUACUGGCUAGU; antisense ACUAGCCAGUAUGAUGAGC; RNA, 3' dTdT, backbone not given here)”, for which the figures for the cell viability in [8] (setting [15]) and in series [8] (setting [16]) were 91% and 17%, respectively. Moreover, the CDI value in [8] (setting [16]) is given as 0.30.

As for “siRNA 1387: siRNA against β-catenin, sense and anti-sense strands SEQ ID NO. 5-6, 2 T-bases at the 3′ end of each strand (sense GUCAACGUCUUGUUCAGAA; antisense UUCUGAACAAGACGUUGAC; RNA, 3' dTdT, backbone not given here)”, the cell viability in series [8] (setting [15]) was found to be 80%. In series [8] (setting [16]), the CDI value is 0.40 and the cell viability was found to be 20%.

Source of the values: patent publication US20230181524A1, “PHARMACEUTICAL COMBINATION AND USE THEREOF” (NATURAL MEDICINE INSTITUTE OF ZHEJIANG YANGSHENGTANG CO., …, priority 2020, published 2023).
